Data published in the NIST ThermoML archive (doi:10.1021/je400250u).

Assays:
[1] = refractive index (Na D-line) (dimensionless); xn = mol fraction of the nth substance listed; settings: 100 kPa, Liquid, Standard Abbe refractometry
[2] = xn = mol fraction of the nth substance listed; settings: 100 kPa, Liquid; for viscosity: Capillary tube (Ostwald / Ubbelohde) method; for mass density: Vibrating tube method

C1CC[C@H]2CCCC[C@H]2C1 [cis-decahydronaphthalene] + CCCCCCCCC
Settings | mass density, [2] [kg/m3] | refractive index, [1] | viscosity, [2] [mPa·s]
293.15 K, x1 = 0.1031 | 734.59 | – | 0.788
293.15 K, x1 = 0.2033 | 751.1 | – | 0.899
293.15 K, x1 = 0.2973 | 766.96 | – | 1.02
293.15 K, x1 = 0.3997 | 784.54 | – | 1.139
293.15 K, x1 = 0.4978 | 801.87 | – | 1.268
293.15 K, x1 = 0.6044 | 821.02 | – | 1.507
293.15 K, x1 = 0.6961 | 837.96 | – | 1.769
293.15 K, x1 = 0.8014 | 857.86 | – | 2.111
293.15 K, x1 = 0.8976 | 876.48 | – | 2.526
293.15 K, x1 = 1 | 896.85 | – | 3.355
298.15 K, x1 = 0.1031 | 730.75 | 1.4095 | 0.737
298.15 K, x1 = 0.2033 | 747.26 | 1.4168 | 0.826
298.15 K, x1 = 0.2973 | 763.14 | 1.4232 | 0.956
298.15 K, x1 = 0.3997 | 780.74 | 1.4311 | 1.064
298.15 K, x1 = 0.4978 | 798.1 | 1.438 | 1.171
298.15 K, x1 = 0.6044 | 817.23 | 1.4459 | 1.385
298.15 K, x1 = 0.6961 | 834.18 | 1.4533 | 1.624
298.15 K, x1 = 0.8014 | 854.08 | 1.4613 | 1.919
298.15 K, x1 = 0.8976 | 872.72 | 1.4688 | 2.288
298.15 K, x1 = 1 | 893.06 | 1.4776 | 3.011
303.15 K, x1 = 0.1031 | 726.86 | – | 0.695
303.15 K, x1 = 0.2033 | 743.4 | – | 0.786
303.15 K, x1 = 0.2973 | 759.3 | – | 0.883
303.15 K, x1 = 0.3997 | 776.91 | – | 0.986
303.15 K, x1 = 0.4978 | 794.29 | – | 1.086
303.15 K, x1 = 0.6044 | 813.43 | – | 1.276
303.15 K, x1 = 0.6961 | 830.38 | – | 1.49
303.15 K, x1 = 0.8014 | 850.29 | – | 1.748
303.15 K, x1 = 0.8976 | 868.92 | – | 2.081
303.15 K, x1 = 1 | 889.26 | – | 2.718
308.15 K, x1 = 0.1031 | 722.96 | 1.4047 | 0.655
308.15 K, x1 = 0.2033 | 739.52 | 1.4121 | 0.739
308.15 K, x1 = 0.2973 | 755.44 | 1.4189 | 0.826
308.15 K, x1 = 0.3997 | 773.07 | 1.4269 | 0.917
308.15 K, x1 = 0.4978 | 790.46 | 1.4336 | 1.01
308.15 K, x1 = 0.6044 | 809.61 | 1.4425 | 1.182
308.15 K, x1 = 0.6961 | 826.58 | 1.4492 | 1.372
308.15 K, x1 = 0.8014 | 846.49 | 1.4572 | 1.606
308.15 K, x1 = 0.8976 | 865.13 | 1.4654 | 1.891
308.15 K, x1 = 1 | 885.46 | 1.4736 | 2.47
313.15 K, x1 = 0.1031 | 719.05 | – | 0.617
313.15 K, x1 = 0.2033 | 735.63 | – | 0.698
313.15 K, x1 = 0.2973 | 751.56 | – | 0.77
313.15 K, x1 = 0.3997 | 769.21 | – | 0.852
313.15 K, x1 = 0.4978 | 786.62 | – | 0.943
313.15 K, x1 = 0.6044 | 805.79 | – | 1.099
313.15 K, x1 = 0.6961 | 822.76 | – | 1.26
313.15 K, x1 = 0.8014 | 842.68 | – | 1.476
313.15 K, x1 = 0.8976 | 861.33 | – | 1.732
313.15 K, x1 = 1 | 881.65 | – | 2.252
318.15 K, x1 = 0.1031 | 715.12 | 1.4002 | 0.588
318.15 K, x1 = 0.2033 | 731.73 | 1.4077 | 0.662
318.15 K, x1 = 0.2973 | 747.68 | 1.4145 | 0.728
318.15 K, x1 = 0.3997 | 765.35 | 1.4223 | 0.802
318.15 K, x1 = 0.4978 | 782.77 | 1.4294 | 0.89
318.15 K, x1 = 0.6044 | 801.95 | 1.4379 | 1.033
318.15 K, x1 = 0.6961 | 818.94 | 1.4452 | 1.174
318.15 K, x1 = 0.8014 | 838.88 | 1.4533 | 1.374
318.15 K, x1 = 0.8976 | 857.52 | 1.4616 | 1.604
318.15 K, x1 = 1 | 877.85 | 1.4696 | 2.079
323.15 K, x1 = 0.1031 | 711.17 | – | 0.559
323.15 K, x1 = 0.2033 | 727.8 | – | 0.626
323.15 K, x1 = 0.2973 | 743.78 | – | 0.681
323.15 K, x1 = 0.3997 | 761.47 | – | 0.753
323.15 K, x1 = 0.4978 | 778.9 | – | 0.835
323.15 K, x1 = 0.6044 | 798.11 | – | 0.965
323.15 K, x1 = 0.6961 | 815.11 | – | 1.094
323.15 K, x1 = 0.8014 | 835.06 | – | 1.262
323.15 K, x1 = 0.8976 | 853.71 | – | 1.477
323.15 K, x1 = 1 | 874.05 | – | 1.912

C1CC[C@H]2CCCC[C@H]2C1 [cis-decahydronaphthalene] + CCCCCCCCCCC
Settings | mass density, [2] [kg/m3] | refractive index, [1] | viscosity, [2] [mPa·s]
293.15 K, x1 = 0.1086 | 753.22 | – | 1.24
293.15 K, x1 = 0.2072 | 765.62 | – | 1.31
293.15 K, x1 = 0.3066 | 778.83 | – | 1.415
293.15 K, x1 = 0.4031 | 792.39 | – | 1.542
293.15 K, x1 = 0.5028 | 807.23 | – | 1.69
293.15 K, x1 = 0.5976 | 822.17 | – | 1.829
293.15 K, x1 = 0.6835 | 836.42 | – | 2.021
293.15 K, x1 = 0.7983 | 856.82 | – | 2.368
293.15 K, x1 = 0.8954 | 875.37 | – | 2.726
293.15 K, x1 = 1 | 896.85 | – | 3.355
298.15 K, x1 = 0.1086 | 749.55 | 1.4192 | 1.148
298.15 K, x1 = 0.2072 | 761.95 | 1.4242 | 1.208
298.15 K, x1 = 0.3066 | 775.16 | 1.4294 | 1.3
298.15 K, x1 = 0.4031 | 788.74 | – | 1.415
298.15 K, x1 = 0.4075 | – | 1.4352 | –
298.15 K, x1 = 0.5028 | 803.55 | – | 1.554
298.15 K, x1 = 0.5059 | – | 1.4411 | –
298.15 K, x1 = 0.592 | – | 1.4469 | –
298.15 K, x1 = 0.5976 | 818.48 | – | 1.67
298.15 K, x1 = 0.6835 | 832.71 | 1.4532 | 1.84
298.15 K, x1 = 0.7983 | 853.1 | 1.4609 | 2.139
298.15 K, x1 = 0.8954 | 871.62 | 1.4686 | 2.458
298.15 K, x1 = 1 | 893.06 | 1.4776 | 3.011
303.15 K, x1 = 0.1086 | 745.85 | – | 1.062
303.15 K, x1 = 0.2072 | 758.26 | – | 1.112
303.15 K, x1 = 0.3066 | 771.47 | – | 1.201
303.15 K, x1 = 0.4031 | 785.05 | – | 1.326
303.15 K, x1 = 0.5028 | 799.85 | – | 1.424
303.15 K, x1 = 0.5976 | 814.77 | – | 1.53
303.15 K, x1 = 0.6835 | 828.99 | – | 1.682
303.15 K, x1 = 0.7983 | 849.36 | – | 1.949
303.15 K, x1 = 0.8954 | 867.86 | – | 2.233
303.15 K, x1 = 1 | 889.26 | – | 2.718
308.15 K, x1 = 0.1086 | 742.15 | 1.4151 | 0.977
308.15 K, x1 = 0.2072 | 754.56 | 1.4198 | 1.034
308.15 K, x1 = 0.3066 | 767.77 | 1.4251 | 1.111
308.15 K, x1 = 0.4031 | 781.35 | – | 1.215
308.15 K, x1 = 0.4075 | – | 1.431 | –
308.15 K, x1 = 0.5028 | 796.14 | – | 1.307
308.15 K, x1 = 0.5059 | – | 1.4366 | –
308.15 K, x1 = 0.592 | – | 1.4426 | –
308.15 K, x1 = 0.5976 | 811.05 | – | 1.41
308.15 K, x1 = 0.6835 | 825.27 | 1.4487 | 1.546
308.15 K, x1 = 0.7983 | 845.62 | 1.4565 | 1.818
308.15 K, x1 = 0.8954 | 864.1 | 1.464 | 2.035
308.15 K, x1 = 1 | 885.46 | 1.4736 | 2.47
313.15 K, x1 = 0.1086 | 738.44 | – | 0.903
313.15 K, x1 = 0.2072 | 750.84 | – | 0.962
313.15 K, x1 = 0.3066 | 764.05 | – | 1.034
313.15 K, x1 = 0.4031 | 777.64 | – | 1.115
313.15 K, x1 = 0.5028 | 792.42 | – | 1.204
313.15 K, x1 = 0.5976 | 807.33 | – | 1.303
313.15 K, x1 = 0.6835 | 821.53 | – | 1.426
313.15 K, x1 = 0.7983 | 841.87 | – | 1.673
313.15 K, x1 = 0.8954 | 860.33 | – | 1.859
313.15 K, x1 = 1 | 881.65 | – | 2.252
318.15 K, x1 = 0.1086 | 734.71 | 1.4114 | 0.843
318.15 K, x1 = 0.2072 | 747.12 | 1.416 | 0.899
318.15 K, x1 = 0.3066 | 760.33 | 1.4213 | 0.964
318.15 K, x1 = 0.4031 | 773.91 | – | 1.038
318.15 K, x1 = 0.4075 | – | 1.4275 | –
318.15 K, x1 = 0.5028 | 788.7 | – | 1.119
318.15 K, x1 = 0.5059 | – | 1.4331 | –
318.15 K, x1 = 0.592 | – | 1.4383 | –
318.15 K, x1 = 0.5976 | 803.6 | – | 1.209
318.15 K, x1 = 0.6835 | 817.79 | 1.4448 | 1.319
318.15 K, x1 = 0.7983 | 838.11 | 1.4536 | 1.505
318.15 K, x1 = 0.8954 | 856.55 | 1.4612 | 1.71
318.15 K, x1 = 1 | 877.85 | 1.4696 | 2.063
323.15 K, x1 = 0.1086 | 730.98 | – | 0.786
323.15 K, x1 = 0.2072 | 743.39 | – | 0.841
323.15 K, x1 = 0.3066 | 756.6 | – | 0.9
323.15 K, x1 = 0.4031 | 770.18 | – | 0.97
323.15 K, x1 = 0.5028 | 784.96 | – | 1.043
323.15 K, x1 = 0.5976 | 799.86 | – | 1.124
323.15 K, x1 = 0.6835 | 814.05 | – | 1.225
323.15 K, x1 = 0.7983 | 834.35 | – | 1.392
323.15 K, x1 = 0.8954 | 852.77 | – | 1.577
323.15 K, x1 = 1 | 874.05 | – | 1.898
